# Data taken from patent US8173631B2, “Cyclic amine compounds” (Daiichi Sankyo Company, Limited, priority 2008, dated 2012).
# Target: T1, human calcium-sensing receptor (CaSR) (Homo sapiens, UniProt P41180)
# T1 construct: expressed in transfected cells
# T1 sequence (P41180 20-1078): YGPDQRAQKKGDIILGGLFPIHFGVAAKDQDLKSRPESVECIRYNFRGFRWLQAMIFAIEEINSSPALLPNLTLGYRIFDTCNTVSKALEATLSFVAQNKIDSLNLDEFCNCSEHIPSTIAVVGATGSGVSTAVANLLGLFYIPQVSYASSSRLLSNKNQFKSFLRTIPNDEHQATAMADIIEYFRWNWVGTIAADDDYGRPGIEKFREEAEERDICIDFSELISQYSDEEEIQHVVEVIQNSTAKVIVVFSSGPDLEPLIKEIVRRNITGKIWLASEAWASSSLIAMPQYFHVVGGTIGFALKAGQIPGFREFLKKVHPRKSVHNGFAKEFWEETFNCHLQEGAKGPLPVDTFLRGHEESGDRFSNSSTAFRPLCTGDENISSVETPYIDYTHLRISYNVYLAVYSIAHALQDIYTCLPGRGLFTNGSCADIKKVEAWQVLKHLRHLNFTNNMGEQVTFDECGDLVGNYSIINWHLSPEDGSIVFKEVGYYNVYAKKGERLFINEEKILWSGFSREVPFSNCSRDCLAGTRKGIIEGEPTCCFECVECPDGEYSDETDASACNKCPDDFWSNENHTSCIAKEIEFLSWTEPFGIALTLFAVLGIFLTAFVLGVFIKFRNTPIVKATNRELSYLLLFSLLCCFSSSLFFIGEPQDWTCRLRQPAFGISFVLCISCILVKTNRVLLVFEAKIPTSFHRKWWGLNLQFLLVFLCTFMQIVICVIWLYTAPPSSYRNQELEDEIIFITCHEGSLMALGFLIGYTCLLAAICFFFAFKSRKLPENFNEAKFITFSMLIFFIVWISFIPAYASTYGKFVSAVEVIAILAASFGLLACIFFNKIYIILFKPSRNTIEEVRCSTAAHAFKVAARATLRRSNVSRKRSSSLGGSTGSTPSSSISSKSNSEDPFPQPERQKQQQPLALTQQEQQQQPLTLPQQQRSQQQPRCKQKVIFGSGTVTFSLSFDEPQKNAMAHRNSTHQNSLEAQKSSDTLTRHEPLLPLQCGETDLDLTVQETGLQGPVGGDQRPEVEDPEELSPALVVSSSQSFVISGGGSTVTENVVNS
# Assay: Inhibitory activity on calcium-sensing receptor (CaSR), intracellular calcium increase as indicator (FLIPR, CHO/hCaSR)
# Format: cell-based
# Conditions: CHO cells stably expressing human CaSR; inhibition of intracellular Ca increase induced by extracellular CaCl2
# Method: Evaluation of inhibitory activity on calcium-sensing receptor (CaSR) using intracellular calcium increase as an indicator
# The preparation which is prepared by adding CHO/hCaSR to F12 medium (manufactured by Invitrogen) containing 10% fetal bovine serum to have 2×10^5 cells/mL was applied to a 384-well in an amount of 50 μL/well, and then incubated overnight in a CO2 incubator. The culture supernatant was completely removed, the assay buffer (20 mM HEPES, HBSS (Ca and Mg free) containing 2.5 mM probenecid, pH 7.4) containing Calcium 3 (manufactured by Molecular Devices), i.e., a fluorescent intracellular calcium indicator, was added thereto in an amount of 25 μL/well, and the mixture was maintained for 1 hour in a CO2 incubator. Meanwhile, Calcium 3 was prepared according to the protocol enclosed in FLIPR Calcium 3 Assay Kit (manufactured by Molecular Devices). After maintaining it for 1 hour, a solution in which the test compound is prepared to have 2.1 to 20,000 nM (final concentration of 1.05 to 10,000 nM) by an assay buffer was added thereto in an amount of 25 μL/well, and maintained for 15 minutes in a CO2 incubator. Then, the CaCl2 solution prepared to have […] by using the assay buffer was added in an amount of 25 μL/well, and the resulting intracellular Ca increase (i.e., fluorescence intensity) was measured over time using a fluorescence imaging plate reader (FLIPR, manufactured by Molecular Devices). From the data obtained, the difference between the fluorescence intensity before the addition of CaCl2 solution and the maximum fluorescence intensity after the addition of CaCl2 solution was calculated, and the 50% inhibition concentration (IC50) of the test compound was obtained.
row,Structure (SMILES),IC50
1,CC[C@@H](OC[C@H](O)CN1CCC[C@H]1Cc1ccc(Cl)c(Cl)c1)c1cccc(C)c1CCC(=O)O [Example 120],≤ 3.15 µM
2,CC[C@@H](OC[C@H](O)CN1CCC[C@H]1Cc1ccc(C)c(F)c1)c1cc(F)c(C)cc1CCC(=O)O [Example 69],≤ 3.27 µM
3,Cc1ccc(C[C@@H]2CCCN2C[C@@H](O)CO[C@H](C)c2cc(F)ccc2CCC(=O)O)cc1Cl [Example 166],≤ 3.35 µM
4,CCC[C@@H](OC[C@H](O)CN1CCC[C@H]1Cc1ccc(C)c(F)c1)c1cccc(C)c1CCC(=O)O [Example 62],≤ 3.29 µM
5,COc1cccc([C@@H](C)OC[C@H](O)CN2CCC[C@H]2Cc2ccc(Cl)c(Cl)c2)c1CCC(=O)O [Example 164],≤ 3.13 µM
6,CCc1cc(C[C@@H]2CCCN2C[C@@H](O)CO[C@H](C)c2cc(F)c(F)cc2CCC(=O)O)ccc1Cl [Example 147],≤ 3.14 µM
7,Cc1ccc(C[C@@H]2CCCN2C[C@@H](O)CO[C@H](C)c2ccc(Cl)cc2CCCCC(=O)O)cc1F [Example 81],≤ 3.16 µM
8,CCC[C@@H](OC[C@H](O)CN1CCC[C@H]1Cc1ccc(C)c(F)c1)c1ccccc1CCC(=O)O [Example 21],≤ 3.39 µM
9,CCOc1cccc([C@@H](C)OC[C@H](O)CN2CCC[C@H]2Cc2ccc(C)c(F)c2)c1CCCCC(=O)O [Example 72],≤ 3.1 µM
10,CCOc1cccc([C@@H](C)OC[C@H](O)CN2CCC[C@H]2Cc2ccc(C)c(F)c2)c1CCC(=O)O [Example 71],≤ 3.28 µM
11,Cc1ccc(C[C@@H]2CCCN2C[C@@H](O)CO[C@H](C)c2cc(F)c(F)cc2CCC(=O)O)cc1F [Example 26],≤ 3.34 µM
12,CCc1cc(C[C@@H]2CCCN2C[C@@H](O)CO[C@H](C)c2ccccc2CCC(=O)O)ccc1Cl [Example 89],≤ 3.38 µM
13,Cc1ccc(C[C@@H]2CCCN2C[C@@H](O)CO[C@H](C)c2cc(F)c(C)cc2CCC(=O)O)cc1F [Example 22],≤ 3.36 µM
14,Cc1ccc(C[C@@H]2CCCN2C[C@@H](O)CO[C@H](C)c2cc(F)cc(F)c2CCC(=O)O)cc1Cl [Example 132],≤ 3.23 µM
15,CCc1cccc(C[C@@H]2CCCN2C[C@@H](O)CO[C@H](C)c2ccccc2CCC(=O)O)c1 [Example 39],≤ 3.64 µM
16,CC[C@@H](OC[C@H](O)CN1CCC[C@H]1Cc1ccc(C)c(Cl)c1)c1cc(F)c(F)cc1CCC(=O)O [Example 144],≤ 3.14 µM
17,"Cc1ccc(C[C@@H]2CCCN2C[C@@H](O)CO[C@H](C)c2ccccc2/C=C/C(=O)O)cc1F [Example 1, (2E)-3-{2-[(1R)-1-({(2R)-3-[(2S)-2-(3-Fluoro-4-methylbenzyl)pyrrolidin-1-yl]-2-hydroxypropyl}oxy)ethyl]phenyl}prop-2-enoic acid]",≤ 3.62 µM
18,Cc1ccc(C[C@@H]2CCCN2C[C@@H](O)CO[C@H](C)c2cccc(C)c2CCCCC(=O)O)cc1F [Example 57],≤ 3.29 µM
19,Cc1ccc(C[C@@H]2CCCN2C[C@@H](O)CO[C@H](C)c2cc(F)c(Cl)cc2CCC(=O)O)cc1F [Example 156],≤ 3.23 µM
20,CC[C@@H](OC[C@H](O)CN1CCC[C@H]1Cc1ccc(C)c(Cl)c1)c1cc(F)cc(F)c1CCC(=O)O [Example 140],≤ 3.14 µM
21,CCc1cc(C[C@@H]2CCCN2C[C@@H](O)CO[C@H](C)c2cc(F)cc(F)c2CCC(=O)O)ccc1Cl [Example 107],≤ 3.14 µM
22,CCC[C@@H](OC[C@H](O)CN1CCC[C@H]1Cc1ccc(C)c(F)c1)c1cc(F)ccc1CCC(=O)O [Example 61],≤ 3.27 µM
23,CC[C@@H](OC[C@H](O)CN1CCC[C@H]1Cc1ccc(Cl)c(F)c1)c1cccc(OC)c1CCC(=O)O [Example 173],≤ 3.15 µM
24,CC[C@@H](OC[C@H](O)CN1CCC[C@H]1Cc1ccc(Cl)c(F)c1)c1cc(F)c(F)cc1CCC(=O)O [Example 145],≤ 3.11 µM
25,CC[C@@H](OC[C@H](O)CN1CCC[C@H]1Cc1ccc(C)c(F)c1)c1cccc(Cl)c1CCC(=O)O [Example 112],≤ 3.25 µM

row,Structure (SMILES),IC50
1,Cc1ccc(C[C@@H]2C[C@@H](F)CN2C[C@@H](O)CO[C@H](C)c2ccccc2CCC(=O)O)cc1F [Example 48],≤ 3.47 µM
2,CCc1cc(C[C@@H]2CCCN2C[C@@H](O)CO[C@H](CC)c2cccc(Cl)c2CCC(=O)O)ccc1Cl [Example 114],≤ 3.06 µM
3,Cc1ccc(C[C@@H]2CCCN2C[C@@H](O)CO[C@H](C)c2ccc(Cl)cc2CCC(=O)O)cc1Cl [Example 127],≤ 3.24 µM
4,C[C@@H](OC[C@H](O)CN1CCC[C@H]1Cc1ccc(Cl)c(Cl)c1)c1cccc(Cl)c1CCC(=O)O [Example 151],≤ 3.11 µM
5,CC[C@@H](OC[C@H](O)CN1CCC[C@H]1Cc1ccc(C)c(Cl)c1)c1cccc(OC)c1CCC(=O)O [Example 171],≤ 3.17 µM
6,CC[C@@H](OC[C@H](O)CN1CCC[C@H]1Cc1ccc(C)c(F)c1)c1cc(F)c(F)cc1CCC(=O)O [Example 154],≤ 3.24 µM
7,CCc1cc(C[C@@H]2CCCN2C[C@@H](O)CO[C@H](C)c2cccc(OC)c2CCC(=O)O)ccc1Cl [Example 165],≤ 3.17 µM
8,CCc1cc(C[C@@H]2CCCN2C[C@@H](O)CO[C@H](CC)c2cc(F)c(F)cc2CCC(=O)O)ccc1Cl [Example 121],≤ 3.05 µM
9,CC[C@@H](OC[C@H](O)CN1CCC[C@H]1Cc1ccc(Cl)c(Cl)c1)c1cc(F)c(C)cc1CCC(=O)O [Example 118],≤ 3.04 µM
10,Cc1cc(CCC(=O)O)c([C@@H](C)OC[C@H](O)CN2CCC[C@H]2Cc2ccc(C)c(Cl)c2)cc1F [Example 174],≤ 3.25 µM
11,CC[C@@H](OC[C@H](O)CN1CCC[C@H]1Cc1ccc(C)c(Cl)c1)c1cccc(F)c1CCC(=O)O [Example 138],≤ 3.25 µM
12,Cc1ccc(C[C@@H]2CCCN2C[C@@H](O)COC(C)c2c(F)cccc2CCC(=O)O)cc1F (stereo partly shown) [Example 31],≤ 3.47 µM
13,Cc1ccc(C[C@@H]2C[C@@H](O)CN2C[C@@H](O)CO[C@H](C)c2ccccc2CCC(=O)O)cc1F [Example 49],≤ 3.48 µM
14,COc1cccc([C@@H](C)OC[C@H](O)CN2CCC[C@H]2Cc2ccc(C)c(F)c2)c1CCC(=O)O [Example 18],≤ 3.38 µM
15,CCc1cc(C[C@@H]2CCCN2C[C@@H](O)CO[C@H](C)c2ccc(C)cc2CCC(=O)O)ccc1Cl [Example 98],≤ 3.28 µM
16,CCC[C@@H](OC[C@H](O)CN1CCC[C@H]1Cc1ccc(C)c(F)c1)c1ccc(C)cc1CCC(=O)O [Example 64],≤ 3.29 µM
17,CC[C@@H](OC[C@H](O)CN1CCC[C@H]1Cc1ccc(Cl)c(Cl)c1)c1cccc(Cl)c1CCC(=O)O [Example 113],≤ 3.03 µM
18,Cc1ccc(C[C@@H]2CCCN2C[C@@H](O)CO[C@H](C)c2cccc(OC(C)C)c2CCCCC(=O)O)cc1F [Example 74],≤ 3.02 µM
19,Cc1cccc([C@@H](C)OC[C@H](O)CN2CCC[C@H]2Cc2ccc(Cl)c(Cl)c2)c1CCC(=O)O [Example 162],≤ 3.24 µM
20,Cc1ccc(C[C@@H]2CCCN2C[C@@H](O)CO[C@H](C)c2cc(F)c(C)cc2CCCCC(=O)O)cc1F [Example 23],≤ 3.18 µM
21,COc1cccc([C@@H](C)OC[C@H](O)CN2CCC[C@H]2Cc2ccc(C)c(Cl)c2)c1CCC(=O)O [Example 167],≤ 3.27 µM
22,C[C@@H](OC[C@H](O)CN1CCC[C@H]1Cc1ccc(Cl)c(Cl)c1)c1ccccc1CCC(=O)O [Example 88],≤ 3.33 µM
23,CC[C@@H](OC[C@H](O)CN1CCC[C@H]1Cc1ccc(C)c(F)c1)c1cc(F)cc(F)c1CCC(=O)O [Example 155],≤ 3.24 µM
24,CC[C@@H](OC[C@H](O)CN1CCC[C@H]1Cc1ccc(Cl)c(Cl)c1)c1ccc(C)cc1CCC(=O)O [Example 102],≤ 3.15 µM
